Test results published in patent US9884042B2, “Formulations of cyclopropanecarboxylic acid {2-[(1S)-1-(3-ethoxy-4-methoxy-phenyl)-2-methanesulfonyl-ethyl]-3-oxo-2,3-dihydro-1H-isoindol-4-yl}-amide” (Celgene Corporation, priority 2011, dated 2018).

Assays:
[1] = system: PDE4 enzyme from U937 human monocytic cells; assay: Enzyme assay using purified PDE4 enzyme; type: biochemical
From the text: Cyclopropane carboxylic acid {2-[(1S)-1-(3-ethoxy-4-methoxy-phenyl)-2-methanesulfonyl-ethyl]-3-oxo-2,3-dihydro-1H-isoindol-4-yl}-amide (“Compound A”) is a novel compound with anti-inflammatory activity in clinical development for the treatment of a variety of chronic inflammatory conditions. Pharmacologically, Compound A blocks the degradation of cyclic adenosine monophosphate (cAMP) via inhibition of the phosphodiesterase type IV (PDE4) enzyme, resulting in an increase in cAMP in PDE4-expressing cells including monocytes, T cells, and neutrophils. Enzyme assay data using purified PDE4 enzyme from U937 human monocytic cells indicate that Compound A has a PDE4 IC50 of 100 nM (50 ng/mL). Compound A and methods for its synthesis are described, e.g., in U.S. Patent Publication No. 2010/0129363, the disclosure of which is hereby incorporated by reference in its entirety. Compound A may also be prepared according to the process described in U.S. Patent Publication No. 2010/0168475, the disclosure of which is hereby incorporated in its entirety.

[2] = Solubility of the drug substance; type: physicochemical; conditions: qualitative statement
From the text: Due to its diversified pharmacological properties, Compound A is useful in treating, preventing, and/or managing various diseases or disorders.

- IC50 [1]: 100 nM
- PDE4 IC50 ([1]; same value in mass units): 0.05 µg/mL
- Solubility [2]: poorly soluble
SMILES: CCOc1cc([C@@H](CS(C)(=O)=O)N2Cc3cccc(NC(=O)C4CC4)c3C2=O)ccc1OC [Compound A, cyclopropanecarboxylic acid {2-[(1S)-1-(3-ethoxy-4-methoxy-phenyl)-2-methanesulfonyl-ethyl]-3-oxo-2,3-dihydro-1H-isoindol-4-yl}-amide]
